Assay results from paper PMC4450297, “Screening Active Compounds from Garcinia Species Native to China Reveals Novel Compounds Targeting the STAT/JAK Signaling Pathway” (BioMed Research International, 2015).

Columns and labels:
Assay type in all cases: cell-based, human
HT-1197 = experiment: Cell panel screen (CellTiter-Glo); details: Homo sapiens, HT1197; HT-1197 (Urinary bladder), 20 micromolar, 72 hrs; read-out: Percent Inhibition
How it was run: (§1)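 ATCC lines in supplier media with 10% FBS, seeded and cultured overnight at 37° C., then exposed to compound at 20 μM final for 72 h. CellTiter-Glo luminescence; % growth inhibition relative to DMSO-treated controls after subtracting cell-free background.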

T47D = experiment: Cell panel screen (CellTiter-Glo); details: Homo sapiens; T47D (Breast), 20 micromolar, 72 hrs; read-out: Percent Inhibition
How it was run: as §1

HEC-1-A = experiment: Cell panel screen (CellTiter-Glo); details: Homo sapiens; HEC-1-A (Uterus), 20 micromolar, 72 hrs; read-out: Percent Inhibition
How it was run: as §1

NCI-H1770 = experiment: Cell panel screen (CellTiter-Glo); details: Homo sapiens; NCI-H1770 (Lung), 20 micromolar, 72 hrs; read-out: Percent Inhibition
How it was run: as §1

HCC1395 = experiment: Cell panel screen (CellTiter-Glo); details: Homo sapiens; HCC1395 (Breast), 20 micromolar, 72 hrs; read-out: Percent Inhibition
How it was run: as §1

Colo 205 = experiment: Cell panel screen (CellTiter-Glo); details: Homo sapiens; Colo 205, 20 micromolar, 72 hrs; read-out: Percent Inhibition
How it was run: as §1

NCI-H1694 = experiment: Cell panel screen (CellTiter-Glo); details: Homo sapiens; NCI-H1694 (Lung), 20 micromolar, 72 hrs; read-out: Percent Inhibition
How it was run: as §1

HGC-27 = experiment: Cell panel screen (CellTiter-Glo); details: Homo sapiens; HGC-27 (Stomach), 20 micromolar, 72 hrs; read-out: Percent Inhibition
How it was run: as §1

ZR-75-30 = experiment: Cell panel screen (CellTiter-Glo); details: Homo sapiens; ZR-75-30 (Breast), 20 micromolar, 72 hrs; read-out: Percent Inhibition
How it was run: as §1

BT-474 = experiment: Cell panel screen (CellTiter-Glo); details: Homo sapiens; BT-474 (Breast), 20 micromolar, 72 hrs; read-out: Percent Inhibition
How it was run: as §1

C3A = experiment: Cell panel screen (CellTiter-Glo); details: Homo sapiens; C3A (Liver), 20 micromolar, 72 hrs; read-out: Percent Inhibition
How it was run: as §1

Bel-7402 = experiment: Cell panel screen (CellTiter-Glo); details: Homo sapiens; Bel-7402 (Liver), 20 micromolar, 72 hrs; read-out: Percent Inhibition
How it was run: as §1

HCC1937 = experiment: Cell panel screen (CellTiter-Glo); details: Homo sapiens; HCC1937 (Breast), 20 micromolar, 72 hrs; read-out: Percent Inhibition
How it was run: as §1

C8166 = experiment: Cell panel screen (CellTiter-Glo); details: Homo sapiens; C8166 (Leukemia), 20 micromolar, 72 hrs; read-out: Percent Inhibition
How it was run: as §1

SW13 = experiment: Cell panel screen (CellTiter-Glo); details: Homo sapiens; SW13 (Adrenal gland), 20 micromolar, 72 hrs; read-out: Percent Inhibition
How it was run: as §1

RL95 = experiment: Cell panel screen (CellTiter-Glo); details: Homo sapiens; RL95 (Uterus), 20 micromolar, 72 hrs; read-out: Percent Inhibition
How it was run: as §1

NCI-H1623 = experiment: Cell panel screen (CellTiter-Glo); details: Homo sapiens; NCI-H1623 (Lung), 20 micromolar, 72 hrs; read-out: Percent Inhibition
How it was run: as §1

CW-2 = experiment: Cell panel screen (CellTiter-Glo); details: Homo sapiens; CW-2 (Colon), 20 micromolar, 72 hrs; read-out: Percent Inhibition
How it was run: as §1

HCC1569 = experiment: Cell panel screen (CellTiter-Glo); details: Homo sapiens; HCC1569 (Breast), 20 micromolar, 72 hrs; read-out: Percent Inhibition
How it was run: as §1

NCI-H28 = experiment: Cell panel screen (CellTiter-Glo); details: Homo sapiens; NCI-H28 (Lung), 20 micromolar, 72 hrs; read-out: Percent Inhibition
How it was run: as §1

NCI-H2405 = experiment: Cell panel screen (CellTiter-Glo); details: Homo sapiens; NCI-H2405 (Lung), 20 micromolar, 72 hrs; read-out: Percent Inhibition
How it was run: as §1

J82 = experiment: Cell panel screen (CellTiter-Glo); details: Homo sapiens; J82 (Urinary bladder), 20 micromolar, 72 hrs; read-out: Percent Inhibition
How it was run: as §1

T98G = experiment: Cell panel screen (CellTiter-Glo); details: Homo sapiens; T98G (Brain), 20 micromolar, 72 hrs; read-out: Percent Inhibition
How it was run: as §1

M059J = experiment: Cell panel screen (CellTiter-Glo); details: Homo sapiens; M059J (Brain), 20 micromolar, 72 hrs; read-out: Percent Inhibition
How it was run: as §1

A498 = experiment: Cell panel screen (CellTiter-Glo); details: Homo sapiens; A498 (listed under Lung), 20 micromolar, 72 hrs; read-out: Percent Inhibition
How it was run: as §1

NCI-H1650 = experiment: Cell proliferation assay (CellTiter-Glo); details: NCI-H1650 cells, 20 μM to 0.009 μM in serial 3-fold dilutions
Procedure: All cells were obtained from the cell bank of the American Type Culture Collection (ATCC) and cultured in the supplier's recommended media supplemented with 10% FBS. The cell panel screen was measured using the CellTiter-Glo assay (Promega, Madison, WI) following a standard protocol. Briefly, cancer cells were seeded in 96-well plates and cultured overnight at 37°C with or without 5% CO2 in an incubator. Each compound was dissolved with limited DMSO and diluted to a certain concentration with culture medium and then added to the corresponding well of the cell plate. The final concentration of compound was 20 μM. The control cells (without treatment) received the same amount of DMSO and were incubated under the same conditions. After 72 h cultivation, 100 μL of the CellTiter-Glo reagent was added directly to each well for 10-minute incubation. The plate was then read on a FlexStation 3 microplate luminometer (Molecular Devices, USA) to monitor the luminescence signal generated by the luciferase-catalyzed reaction of luciferin and ATP. The percent of growth inhibition was calculated using the following formula: (untreated cells − treated cells)/(untreated cells − background without cells) ∗ 100.
For proliferation assays, the CellTiter-Glo assay (Promega, Madison, WI) was used to evaluate the proliferation of cancer cells treated with test compounds as described above. Each compound was dissolved in limited DMSO and diluted to various concentrations with culture medium and then added to the corresponding wells. A dose-response curve was plotted, and the IC50 was calculated using XLfit software.

Row | SMILES | inhibition at 20 µM (HT-1197) | inhibition at 20 µM (T47D) | inhibition at 20 µM (HEC-1-A) | inhibition at 20 µM (NCI-H1770) | inhibition at 20 µM (HCC1395) | inhibition at 20 µM (Colo 205) | inhibition at 20 µM (NCI-H1694) | inhibition at 20 µM (HGC-27) | inhibition at 20 µM (ZR-75-30) | inhibition at 20 µM (BT-474) | inhibition at 20 µM (C3A) | inhibition at 20 µM (Bel-7402) | inhibition at 20 µM (HCC1937) | inhibition at 20 µM (C8166) | inhibition at 20 µM (SW13) | inhibition at 20 µM (RL95) | inhibition at 20 µM (NCI-H1623) | inhibition at 20 µM (CW-2) | inhibition at 20 µM (HCC1569) | inhibition at 20 µM (NCI-H28) | further results
1 | CC(C)=CCC[C@@]1(C)C=Cc2c(O)c3c(c(C/C=C(\C)CO)c2O1)O[C@]12C(=C[C@@H]4C[C@H]1C(C)(C)O[C@@]2(C/C=C(/C)C(=O)O)C4=O)C3=O [GB40, 35-hydroxyepigambogic acid] | 99% | 99% | 99% | 99% | 98% | 99% | 99% | 99% | 99% | 99% | 98% | 99% | 99% | 99% | 98% | 99% | 99% | 99% | 99% | 98% | inhibition at 20 µM (NCI-H2405): 99%; inhibition at 20 µM (J82): 99%; inhibition at 20 µM (T98G): 99%; inhibition at 20 µM (M059J): 99%; inhibition at 20 µM (A498): 98%; IC50 (NCI-H1650; Homo sapiens, NCI-H1650, 72 h): < 1000 nM; IC50 (NCI-H1650; 72 hr): 620 ± 30 nM
2 | CC(C)=CCC/C(C)=C/Cc1c(O)c(CC=C(C)C)c2c(c1O)C(=O)C1=C[C@@H]3C[C@H]4C(C)(C)O[C@@](C/C=C(\C)C(=O)O)(C3=O)[C@@]14O2 [GB63] | 99% | 99% | 99% | 99% | 99% | 99% | 100% | 99% | 99% | 99% | 99% | 99% | 100% | 100% | 99% | 99% | 99% | 99% | 99% | 99% | inhibition at 20 µM (NCI-H2405): 99%; inhibition at 20 µM (J82): 99%; inhibition at 20 µM (T98G): 99%; inhibition at 20 µM (M059J): 99%; inhibition at 20 µM (A498): 98%; IC50 (NCI-H1650; Homo sapiens, NCI-H1650, 72 h): 1430 ± 90 nM
